What all share (assay): Synergistic antimicrobial activity as MIC, 96-well microplate, optical density at 620 nm
Holding throughout (type): cell-based
Common to all, as to conditions: for microbial growth percentage: 0 A

Assay [1] concerns Staphylococcus aureus ATCC 6538. An excerpt:
(§1) FIC Index=(MIC of A with B/MIC of A)+(MIC of B with A/MIC of B [Math. 1]
(§2) with: • MIC of A with B: minimum concentration of product A in the combination A+B which makes it possible to obtain an inhibitory effect; • MIC of B with A: minimum concentration of product B in the combination A+B which makes it possible to obtain an inhibitory effect; • MIC of A: minimum inhibitory concentration of product A alone; • MIC of B: minimum inhibitory concentration of product B alone. This formula was described for the first time in the article by F. C. Kull, P. C. Eisman, H. D. Sylwestrowka, and R. L. Mayer, Applied Microbiology 9:538-541, 1961.
The microbial strain Staphylococcus aureus ATCC 6538 and a double-concentration nutrient broth liquid culture medium were used.
(§3) A 96-well microplate at an incubation temperature of 32.5° C. is used.
(§4) The incubation time of the microplate is: • from 24 to 30 h under aerobic conditions for microbial Aspergillus niger ATCC 6275; • from 18 to 24 h under aerobic conditions for Candida albicans ATCC 10231, Pseudomonas aeruginosa ATCC 9027 and Staphylococcus aureus ATCC 6538; • from 24 to 48 h under aerobic conditions for Enterococcus faecalis ATCC 33186.
(§5) For each compound: A=4-(3-ethoxy-4-hydroxyphenyl) butan-2-one compound B=alcohol compound A 10% (weight/volume) stock solution was prepared by mixing 1 g of compound in 9 ml of aqueous 1% agar solution. Successive dilutions were made with the 1% agar solution.
(§6) 50 μl of each of the daughter solutions obtained containing compound A or B are added to the microplate wells. 100 μl of Sabouraud liquid nutrient broth inoculated at double concentration with the Aspergillus niger strain and 50 μl of aqueous 1% agar solution are also added thereto.
(§7) 50 μl of each of the daughter solutions obtained containing compound A and 50 μl of each of the daughter solutions obtained containing compound B are added to the microplate wells. 100 μl of Sabouraud liquid nutrient broth inoculated at double concentration with the strain Aspergillus niger are also added thereto.
(§8) A positive microbial growth control was also prepared. The positive microbial growth control corresponds to a mixture of 100 μl of aqueous 1% agar solution with 100 μl of Sabouraud liquid nutrient broth inoculated at double concentration with the strain Aspergillus niger in the absence of compounds A and B.
(§9) An absorbance control was performed in parallel on compounds A and B alone. This control corresponds to 100 μl of double concentration sterile Sabouraud liquid nutrient broth+100 μl of double concentration compound A or B.
(§10) In the three cases (absorbance control, growth control and test), the final volume present in each of the microplate wells is 200 μl.
(§11) The test as described above (tests, absorbance control and growth control) was performed again to test the combination A+B on the following strains Enterococcus faecalis, Staphylococcus aureus, Pseudomonas aeruginosa, Candida albicans, where appropriate.

The subject of assay [2] is Enterococcus faecalis ATCC 33186.
Source text: as §1, §2
The microbial strain Enterococcus faecalis ATCC 33186 and a double-concentration BHI (Brain Heart Infusion) broth liquid culture medium were used.
as §3, §4, §5, §6, §7, §8, §9, §10, §11

Assay [3] relates to Aspergillus niger ATCC 6275.
Source text: as §1, §2
The microbial strain Aspergillus niger ATCC 6275, and a double-concentration Sabouraud broth liquid culture medium supplemented with polyoxyethylenated (20 OE) sorbitan monopalmitate (Tween 40 from Croda) and Phytagel© BioReagent were used (i.e. a mixture of 5 g of Phytagel+0.6 g of Tween 40+60 g of Sabouraud broth).
as §3, §4, §5, §6, §7, §8, §9, §10
In the two cases (test and control), the inoculum represents the concentration of the Aspergillus niger strain present in the final volume of the wells (200 μl) and is between 2 and 6×10^5 cfu/ml of Aspergillus niger.

In assay [4] the test system is Pseudomonas aeruginosa ATCC 9027. An excerpt: (§12) with: • MIC of A with B: minimum concentration of product A in the combination A+B which makes it possible to obtain an inhibitory effect; • MIC of B with A: minimum concentration of product B in the combination A+B which makes it possible to obtain an inhibitory effect; • MIC of A: minimum inhibitory concentration of product A alone; • MIC of B: minimum inhibitory concentration of product B alone. This formula was described for the first time in the article by F. C. Kull, […], and R. L. Mayer, Applied Microbiology 9:538-541, 1961. […] When the FIC index value is less than or equal to 1, it is considered that the combination of test compounds has a synergistic effect. The microbial strain Pseudomonas aeruginosa ATCC 9027 and a double-concentration nutrient broth liquid culture medium were used. A 96-well microplate at an incubation temperature of 32.5° C. is used. […] For each compound: […] 50 μl of each of the daughter solutions obtained containing compound A and 50 μl of each of the daughter solutions obtained containing compound B are added to the microplate wells. 100 μl of Sabouraud liquid nutrient broth inoculated at double concentration with the strain Aspergillus niger are also added thereto. A positive microbial growth control was also prepared. […] An absorbance control was performed in parallel on compounds A and B alone. This control corresponds to 100 μl of double concentration sterile Sabouraud liquid nutrient broth+100 μl of double concentration compound A or B. […] The test as described above (tests, absorbance control and growth control) was performed again to test the combination A+B on the following strains Enterococcus faecalis, Staphylococcus aureus, Pseudomonas aeruginosa, Candida albicans, where appropriate.

Assay [5] deals with Candida albicans ATCC 10231.
Source text: as §12, with “The microbial strain Pseudomonas aeruginosa ATCC 9027 and a double-concentration nutrient broth liquid culture medium were used.” left out

The mark [6] stands for this setting: Staphylococcus aureus, growth <= 25%.
The mark [7] stands for this setting: Enterococcus faecalis, growth <= 25%.
Setting [8] is: Aspergillus niger, growth <= 25%.

As for `Oc1cc(Cl)ccc1Oc1ccc(Cl)cc1Cl` [B2, 5-chloro-2-(2,4-dichlorophenoxy)phenol], the microbial growth percentage in assay [1] (0.125 B2 weight %) worked out at 46%; in assay [1] (0.25 B2 weight %) it was 14%. Besides, the “% MIC of B2 alone” value in assay [1] (setting [6]) amounted to 0.25%.
With sorbitan caprylate [B3], the microbial growth percentage in assay [2] (0.125 B3 weight %) was 134%; in assay [2] (0.25 B3 weight %), 61%; in assay [2] (0.5 B3 weight %), 62%; in assay [2] (1 B3 weight %), 2%; in assay [3] (0.025 B3 weight %) it was 50%; in assay [3] (0.05 B3 weight %) it was 30%. In addition, in assay [3] (0.1 B3 weight %), the microbial growth percentage is given as −2%. In addition, the results for the “% MIC of B3 alone” value in assay [2] (setting [7]) and in assay [3] (setting [8]) were 1% and 0.1%, respectively.
For `CCCCCCCC(=O)OCC(O)CO` (centres unmarked) [B6, glyceryl caprylate], the microbial growth percentage turned out to be 57% in assay [2] (0.125 B6 weight %); 22% in assay [2] (0.25 B6 weight %); 8% in assay [2] (0.5 B6 weight %); 38% in assay [2] (0.625 B6 weight %); 123% in assay [4] (0.1 B6 weight %); 109% in assay [4] (0.2 B6 weight %). For the same compound, the microbial growth percentage was −40% in assay [4] (0.4 B6 weight %); 83% in assay [1] (0.0625 B6 weight %); 87% in assay [1] (0.125 B6 weight %); 53% in assay [1] (0.25 B6 weight %); 48% in assay [1] (0.5 B6 weight %); 9% in assay [1] (1 B6 weight %). The “% MIC of B6 alone” value in assay [2] (setting [7]) came out at 0.5%; in assay [4] (Pseudomonas aeruginosa, growth <= 25%), 0.4%; in assay [1] (setting [6]) it was 1%.
For the compound `Cc1cc(O)cc(C)c1Cl` [B5, 4-chloro-3,5-dimethylphenol], the microbial growth percentage in assay [3] (0.0625 B5 weight %) is 99%; in assay [3] (0.125 B5 weight %), 103%; in assay [3] (0.25 B5 weight %), 31%; in assay [3] (0.5 B5 weight %), −6%; in assay [5] (0.0625 B5 weight %), 73%; in assay [5] (0.125 B5 weight %), 28%. In assay [5] (0.25 B5 weight %), the microbial growth percentage was found to be 1%. Moreover, the “% MIC of B5 alone” value in assay [3] (setting [8]) turned out to be 0.5%; in assay [5] (Candida albicans, growth <= 25%), 0.25%.
For `CC(=O)c1ccc(O)cc1` [B1, 4-hydroxyacetophenone], the microbial growth percentage stood at 86% in assay [3] (0.0625 B1 weight %), 72% in assay [3] (0.125 B1 weight %), 79% in assay [3] (0.25 B1 weight %) and 6% in assay [3] (0.5 B1 weight %). For the same compound, the “% MIC of B1 alone” value in assay [3] (setting [8]) worked out at 0.5%.

For the origin of these results see patent US20220174947A1, “ANTIMICROBIAL MIXTURE CONTAINING 4-(3-ETHOXY-4-HYDROXYPHENYL)BUTAN-2-ONE AND AN ALCOHOL COMPOUND, AND COSMETIC COMPOSITION CONTAINING SAME” (L'OREAL, priority 2018, published 2022).
